“And” between values parts separate entries of the source, which are not always exact repeats. Equal values may be shown once. Blank lines part the entries; values can stand above or below the molecule they belong to.
Legend:
[1] = female, CD-1, mouse, in vivo, po, 0.167 h
Protocol: (§1) Samples were centrifuged at 15,000 rpm for 10 min, then blood plasma was collected from the upper layer and frozen at −80 °C until analysis. […] Sample processing, chromatographic separation, MS, and MS/MS parameters used for analysis were determined by the core. […] Standard curves for peak area ratio of compound to internal standard (Astd/AIstd) vs. compound concentration were used to determine sample analyte concentrations through linear regression with a weighting average of 1/X^2. […] All pharmacokinetic parameters were estimated using non-compartmental analysis with Phoenix/WINONLIN, and provided by the core along with calculated sample analyte concentrations. Data was generated from n ≥ 3 individual animals sampled per time point per compound for each method of dosing.

in vivo = settings: female, CD-1, mouse
Protocol: as §1

SET-2 cells = experiment: SET-2 proliferation assay (CellTiter-Fluor); type: cell-based, human; settings: 72 h, replicates (Fig. 2d)
Protocol: Viable cells were counted by CellTiter-Fluor Assay (Promega) according to manufacturer’s protocol, and all fluorescence values were corrected by a no-cell control. […] Caspase activity was measured by Caspase-Glo 3/7 assay (Promega) according to the manufacturer’s protocol, and all luminescence values were corrected by a no-cell control. Dose response proliferation and Caspase activation data was normalized to vehicle treated control cells and analyzed by non-linear regression for determination of IC50 values. Data was generated from n = 3 independent experiments performed in replicate.

[2] = Compound quantitation in blood and mesenteric lymph nodes; type: in vivo, mouse; settings: mice, 4 h after oral 100 mg kg^−1
Protocol: Whole blood and mesenteric lymph nodes were collected either 30 min or 4 h following compound administration and stored at −20 °C until future processing and analysis by the University of Michigan Pharmacokinetics Core as above, or as outlined below, to determine compound concentrations in each tissue. […] Data was generated from n ≥ 4 individual animals per compound per study group or dose.
Briefly, acetonitrile was added to a final concentration of 60–80% to bone marrow, whole blood, plasma, lymphatic fluid, lymphatic proteo-lipid sub-fractions, or mesenteric lymph node samples for compound extraction. Extraction was performed by shaking and/or bead rupture using a Precellys Evolution tissue homogenizer (Bertin Technologies SAS). […] Optimization of MS and MS/MS parameters for MRM quantitation and maximum sensitivity of individual compounds was performed using SCIEX Analyst software (AB Sciex). […] All LC-MS/MS acquisitions were performed with an independent standard curve for each group of analytes and for each individual run. All solvents utilized were of Optima LC-MS Grade (Fisher Scientific). Data was generated from n ≥ 2 individual animals per compound per study condition or dose.

[3] = Pharmacokinetic analysis of plasma after intravenous and oral dosing
Protocol: as §1

MAPK signaling = settings: cited from earlier work

- Concentration [1]: 704 ng/mL
- concentration at 0.167 h (in vivo; iv): 3300 ng/mL
- concentration at 0.5 h (in vivo; iv): 2510 ng/mL
- concentration at 1 h (in vivo; iv): 1710 ng/mL
- concentration at 2 h (in vivo; iv): 744 ng/mL
- concentration at 24 h (in vivo; iv): 1 ng/mL
- concentration at 0.167 h (in vivo; po): 626 ng/mL
- concentration at 0.5 h (in vivo; po): 3700 ng/mL
- concentration at 1 h (in vivo; po): 3440 ng/mL
- concentration at 2 h (in vivo; po): 4880 ng/mL
- concentration at 7 h (in vivo; po): 3930 ng/mL
- concentration at 16 h (in vivo; po): 4430 ng/mL
Structure (SMILES): COc1ccc(-c2ccc3c(N4CCOC[C@@H]4C)nc(N4CCOC[C@@H]4C)nc3n2)cc1CO [AZD8055]

Structure (SMILES): O=C(NOCCO)c1ccc(F)c(F)c1Nc1ccc(I)cc1F [PD0316684, reference compound]
- Growth (%) (SET-2 cells; 0.0390625 µM): 95.6027% and 82.3855% and 49.4653% and 99.6209% and 66.699% and 96.6844%
- Growth (%) (SET-2 cells; 0.078125 µM): 101.495% and 98.0639% and 103.106% and 103.604% and 92.0053% and 98.1242%
- Growth (%) (SET-2 cells; 0.15625 µM): 100.075% and 88.7042% and 52.4529% and 86.403% and 62.7397% and 78.9368%
- Growth (%) (SET-2 cells; 0.3125 µM): 97.1172% and 98.6318% and 60.2388% and 84.8639% and 78.1339% and 80.2658%
- Growth (%) (SET-2 cells; 0.625 µM): 88.0297% and 91.2009% and 71.3744% and 84.6376% and 79.2414% and 81.5948%
- Growth (%) (SET-2 cells; 5 µM): 71.6887% and 74.5167% and 60.9631% and 39.5066% and 70.9074% and 51.4432%
- Growth (%) (SET-2 cells; 10 µM): 49.6443% and 48.6858% and 23.1653% and 17.5522% and 22.5652% and 22.2053%
- Growth (%) (SET-2 cells; 20 µM): 15.211% and 15.14% and -3.18% and -3.361% and -4.513% and -3.5163%
- uptake in the mesenteric lymph nodes compared to LP5-37 [2]: reduced uptake
- concentration at 0.167 h ([3]; female, CD-1, mouse, plasma, iv, 15 mg kg^−1, Concentration (ng/mL), mice, single i.v. LP-182 15 mg kg^−1, 0.167 h, analyte = label, individual animals): 771 ng/mL
- concentration at 1 h ([3]; female, CD-1, mouse, plasma, iv, 15 mg kg^−1, Concentration (ng/mL), mice, single i.v. LP-182 15 mg kg^−1, 1 h, analyte = label, individual animals): 95.3 ng/mL
- concentration at 2 h ([3]; female, CD-1, mouse, plasma, iv, 15 mg kg^−1, Concentration (ng/mL), mice, single i.v. LP-182 15 mg kg^−1, 2 h, analyte = label, individual animals): 58.1 ng/mL
- concentration at 4 h ([3]; female, CD-1, mouse, plasma, iv, 15 mg kg^−1, Concentration (ng/mL), mice, single i.v. LP-182 15 mg kg^−1, 4 h, analyte = label, individual animals): 18.6 ng/mL
- concentration at 7 h ([3]; female, CD-1, mouse, plasma, iv, 15 mg kg^−1, Concentration (ng/mL), mice, single i.v. LP-182 15 mg kg^−1, 7 h, analyte = label, individual animals): 5.74 ng/mL
- concentration at 16 h ([3]; female, CD-1, mouse, plasma, iv, 15 mg kg^−1, Concentration (ng/mL), mice, single i.v. LP-182 15 mg kg^−1, 16 h, analyte = label, individual animals): 3.59 ng/mL
- concentration at 0.167 h ([3]; female, CD-1, mouse, plasma, iv, 15 mg kg^−1, Concentration, Figure 6c, Time 0.167 h, individual replicates): 89.6 ng/mL
- concentration at 1 h ([3]; female, CD-1, mouse, plasma, iv, 15 mg kg^−1, Concentration, Figure 6c, Time 1 h, individual replicates): 39.4 ng/mL
- concentration at 2 h ([3]; female, CD-1, mouse, plasma, iv, 15 mg kg^−1, Concentration, Figure 6c, Time 2 h, individual replicates): 18.7 ng/mL
- concentration at 0.167 h ([3]; female, CD-1, mouse, plasma, iv, 15 mg kg^−1, Concentration, Figure 6d, Time 0.167 h, individual replicates): 234 ng/mL
- concentration at 0.5 h ([3]; female, CD-1, mouse, plasma, iv, 15 mg kg^−1, Concentration, Figure 6d, Time 0.5 h, individual replicates): 241 ng/mL
- concentration at 1 h ([3]; female, CD-1, mouse, plasma, iv, 15 mg kg^−1, Concentration, Figure 6d, Time 1 h, individual replicates): 112 ng/mL
- concentration at 2 h ([3]; female, CD-1, mouse, plasma, iv, 15 mg kg^−1, Concentration, Figure 6d, Time 2 h, individual replicates): 62.8 ng/mL
- concentration at 4 h ([3]; female, CD-1, mouse, plasma, iv, 15 mg kg^−1, Concentration, Figure 6d, Time 4 h, individual replicates): 39.4 ng/mL
- concentration at 7 h ([3]; female, CD-1, mouse, plasma, iv, 15 mg kg^−1, Concentration, Figure 6d, Time 7 h, individual replicates): 35.3 ng/mL
- concentration at 24 h ([3]; female, CD-1, mouse, plasma, iv, 15 mg kg^−1, Concentration, Figure 6d, Time 24 h, individual replicates): 3.46 ng/mL
- concentration at 0.5 h ([3]; female, CD-1, mouse, plasma, po, 200 mg kg^−1, Concentration, Figure 6c, Time 0.5 h, individual replicates): 644 ng/mL
- concentration at 7 h ([3]; female, CD-1, mouse, plasma, po, 200 mg kg^−1, Concentration, Figure 6c, Time 7 h, individual replicates): 260 ng/mL
- concentration at 0.5 h ([3]; female, CD-1, mouse, plasma, po, 200 mg kg^−1, Concentration, Figure 6d, Time 0.5 h, individual replicates): 254 ng/mL
- concentration at 1 h ([3]; female, CD-1, mouse, plasma, po, 200 mg kg^−1, Concentration, Figure 6d, Time 1 h, individual replicates): 156 ng/mL
- concentration at 7 h ([3]; female, CD-1, mouse, plasma, po, 200 mg kg^−1, Concentration, Figure 6d, Time 7 h, individual replicates): 201 ng/mL
- concentration at […] ([3]; female, CD-1, mouse, plasma, po, 200 mg kg^−1, Concentration, Figure 6d, Time […], individual replicates): 131 ng/mL
- concentration at 0.167 h ([3]; female, CD-1, mouse, plasma, po, 400 mg kg^−1, Concentration (ng/mL), mice, single p.o. LP-182 400 mg kg^−1, 0.167 h, analyte = label, individual animals): 175 ng/mL
- concentration at 0.5 h ([3]; female, CD-1, mouse, plasma, po, 400 mg kg^−1, Concentration (ng/mL), mice, single p.o. LP-182 400 mg kg^−1, 0.5 h, analyte = label, individual animals): 399 ng/mL
- concentration at 1 h ([3]; female, CD-1, mouse, plasma, po, 400 mg kg^−1, Concentration (ng/mL), mice, single p.o. LP-182 400 mg kg^−1, 1 h, analyte = label, individual animals): 500 ng/mL
- concentration at 4 h ([3]; female, CD-1, mouse, plasma, po, 400 mg kg^−1, Concentration (ng/mL), mice, single p.o. LP-182 400 mg kg^−1, 4 h, analyte = label, individual animals): 76.7 ng/mL
- concentration at 16 h ([3]; female, CD-1, mouse, plasma, po, 400 mg kg^−1, Concentration (ng/mL), mice, single p.o. LP-182 400 mg kg^−1, 16 h, analyte = label, individual animals): 68.3 ng/mL
- concentration at 24 h ([3]; female, CD-1, mouse, plasma, po, 400 mg kg^−1, Concentration (ng/mL), mice, single p.o. LP-182 400 mg kg^−1, 24 h, analyte = label, individual animals): 78.6 ng/mL
- plasma level maintained over 24 h ([3]; mice, after oral LP-182 400 mg kg^−1, analyte = label): ~100 ng/mL

Structure (SMILES): O=C(NOC[C@H](O)CO)c1ccc(F)c(F)c1Nc1ccc(I)cc1F [PD0325901]
- plasma concentration with significant pharmacologic activity against MAPK signaling (MAPK signaling): > 50 ng mL^−1
